Literature values, collected in PMC8208785, “Therapeutic efficacy of novel memantine nitrate MN‐08 in animal models of Alzheimer’s disease” (Aging Cell, 2021).

Tested on: experimental subarachnoid hemorrhage models
Design: method as in Luo et al., 2019
Conditions: ref Luo et al., 2019; cited from earlier work

For CCC12CC3CC(N)(C1)CC(CO[N+](=O)[O-])(C3)C2 (stereo not shown) [MN‐08], the cerebral blood flow is given as “increase”.
